Data published in patent US10597388B2, “Pyridazinone herbicides” (FMC CORPORATION, priority 2014, dated 2020).

Legend:
Test in all cases: Test D controlled growth environment herbicide test, pre- and postemergence
Assay type in all cases: in vivo
[1] = test system: oat, wild (wild oat, Avena fatua)
Method in brief: (§1)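 Species sown in silt loam and sprayed preemergence, or grown in peat-based medium to 2–18 cm (1- to 4-leaf stage) and sprayed postemergence, with compounds in non-phytotoxic solvent plus surfactant. Visual injury scored versus controls after 14–21 d in a controlled environment, 0 (no effect) to 100 (complete control).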

[2] = test system: wheat, spring (spring wheat, Triticum aestivum)
Method in brief: as §1

[3] = test system: chickweed (common chickweed, Stellaria media)
Method in brief: as §1

[4] = test system: bluegrass (annual bluegrass, Poa annua)
Method in brief: as §1

[5] = test system: lambsquarters (Chenopodium album)
Method in brief: as §1

[6] = test system: barley, winter (winter barley, Hordeum vulgare)
Method in brief: as §1

[7] = test system: field violet (Viola arvensis)
Method in brief: as §1

[8] = test system: radish, wild (wild radish, Raphanus raphanistrum)
Method in brief: as §1

[9] = test system: barley, spring (spring barley, Hordeum vulgare)
Method in brief: as §1

[10] = test system: field poppy (Papaver rhoeas)
Method in brief: as §1

[11] = test system: canarygrass (Phalaris minor)
Method in brief: as §1

[12] = test system: Russian thistle (Salsola kali)
Method in brief: as §1

[13] = test system: wheat, winter (winter wheat, Triticum aestivum)
Method in brief: as §1

[14] = Postemergence, 31 g ai/ha, scale 0 to 100 (0 no effect, 100 complete control)
[15] = Postemergence, 125 g ai/ha, visual rating on scale 0 (no effect) to 100 (complete control), 14 to 21 d
[16] = Postemergence, 250 g ai/ha, scale 0 to 100 (0 no effect, 100 complete control)
[17] = Preemergence, 62 g ai/ha, scale 0 to 100 (0 no effect, 100 complete control)
[18] = Preemergence, 125 g ai/ha, scale 0 to 100 (0 no effect, 100 complete control)
[19] = Preemergence, 250 g ai/ha, scale 0 to 100, 0 no effect, 100 complete control
[20] = postemergence, 62 g ai/ha, scale 0 to 100, 0 no effect, 100 complete control

Cc1nn(C)c(=O)c(-c2ccc(Br)c3ccccc23)c1O [Compound 75]
Oat, Wild plant response rating [1, 14]: 50 | Plant response rating, Oat, Wild [1, 15]: 85 | Plant response rating, Oat, Wild [1, 16]: 80 | Plant response rating (scale of 0 to 100), Oat, Wild ([1]; Preemergence, 31 g ai/ha): 55 | Plant response rating, Oat, Wild [1, 17]: 65 | Plant response rating, Oat, Wild [1, 18]: 80 | Plant response rating, Oat, Wild [1, 19]: 85 | Plant response rating, Oat, Wild [1, 20]: 70 | Wheat, Spring plant response rating [2, 14]: 0 | Plant response rating, Wheat, Spring [2, 15]: 5 | Plant response rating, Wheat, Spring [2, 16]: 15 | Plant response rating (scale of 0 to 100), Wheat, Spring ([2]; Preemergence, 31 g ai/ha): 0 | Plant response rating, Wheat, Spring [2, 17]: 25 | Plant response rating, Wheat, Spring [2, 18]: 35 | Plant response rating, Wheat, Spring [2, 19]: 45 | Plant response rating, Wheat, Spring [2, 20]: 0 | Chickweed plant response rating [3, 14]: 100 | Plant response rating, Chickweed [3, 15]: 100 | Plant response rating, Chickweed [3, 16]: 100 | Plant response rating (scale of 0 to 100), Chickweed ([3]; Preemergence, 31 g ai/ha): 90 | Plant response rating, Chickweed [3, 17]: 100 | Plant response rating, Chickweed [3, 18]: 95 | Plant response rating, Chickweed [3, 19]: 100 | Plant response rating, Chickweed [3, 20]: 100 | Bluegrass plant response rating [4, 14]: 10 | Plant response rating, Bluegrass [4, 15]: 15 | Plant response rating, Bluegrass [4, 16]: 15 | Plant response rating (scale of 0 to 100), Bluegrass ([4]; Preemergence, 31 g ai/ha): 15 | Plant response rating, Bluegrass [4, 17]: 15 | Plant response rating, Bluegrass [4, 18]: 10 | Plant response rating, Bluegrass [4, 19]: 35 | Plant response rating, Bluegrass [4, 20]: 10 | Lambsquarters plant response rating [5, 14]: 100 | Plant response rating, Lambsquarters [5, 15]: 100 | Plant response rating, Lambsquarters [5, 16]: 100 | Plant response rating (scale of 0 to 100), Lambsquarters ([5]; Preemergence, 31 g ai/ha): 95 | Plant response rating, Lambsquarters [5, 17]: 95 | Plant response rating, Lambsquarters [5, 18]: 100 | Plant response rating, Lambsquarters [5, 19]: 100 | Plant response rating, Lambsquarters [5, 20]: 100 | Barley, Winter plant response rating [6, 14]: 0 | Plant response rating, Barley, Winter [6, 15]: 0 | Plant response rating, Barley, Winter [6, 16]: 5 | Plant response rating (scale of 0 to 100), Barley, Winter ([6]; Preemergence, 31 g ai/ha): 0 | Plant response rating, Barley, Winter [6, 17]: 0 | Plant response rating, Barley, Winter [6, 18]: 0 | Plant response rating, Barley, Winter [6, 19]: 0 | Plant response rating, Barley, Winter [6, 20]: 0 | Field Violet plant response rating [7, 14]: 95 | Plant response rating, Field Violet [7, 15]: 95 | Plant response rating, Field Violet [7, 16]: 100 | Plant response rating (scale of 0 to 100), Field Violet ([7]; Preemergence, 31 g ai/ha): 95 | Plant response rating, Field Violet [7, 17]: 100 | Plant response rating, Field Violet [7, 18]: 100 | Plant response rating, Field Violet [7, 19]: 100 | Plant response rating, Field Violet [7, 20]: 100 | Radish, Wild plant response rating [8, 14]: 95 | Plant response rating, Radish, Wild [8, 15]: 100 | Plant response rating, Radish, Wild [8, 16]: 100 | Plant response rating (scale of 0 to 100), Radish, Wild ([8]; Preemergence, 31 g ai/ha): 40 | Plant response rating, Radish, Wild [8, 17]: 70 | Plant response rating, Radish, Wild [8, 18]: 100 | Plant response rating, Radish, Wild [8, 19]: 100 | Plant response rating, Radish, Wild [8, 20]: 100 | Barley, Spring plant response rating [9, 14]: 0 | Plant response rating, Barley, Spring [9, 15]: 0 | Plant response rating, Barley, Spring [9, 16]: 0 | Plant response rating (scale of 0 to 100), Barley, Spring ([9]; Preemergence, 31 g ai/ha): 0 | Plant response rating, Barley, Spring [9, 17]: 0 | Plant response rating, Barley, Spring [9, 18]: 0 | Plant response rating, Barley, Spring [9, 19]: 0 | Plant response rating, Barley, Spring [9, 20]: 0 | Field Poppy plant response rating [10, 14]: 100 | Plant response rating, Field Poppy [10, 15]: 100 | Plant response rating, Field Poppy [10, 16]: 100 | Plant response rating (scale of 0 to 100), Field Poppy ([10]; Preemergence, 31 g ai/ha): 0 | Plant response rating, Field Poppy [10, 17]: 95 | Plant response rating, Field Poppy [10, 18]: 100 | Plant response rating, Field Poppy [10, 19]: 100 | Plant response rating, Field Poppy [10, 20]: 100 | Canarygrass plant response rating [11, 14]: 15 | Plant response rating, Canarygrass [11, 15]: 30 | Plant response rating, Canarygrass [11, 16]: 50 | Plant response rating (scale of 0 to 100), Canarygrass ([11]; Preemergence, 31 g ai/ha): 20 | Plant response rating, Canarygrass [11, 17]: 55 | Plant response rating, Canarygrass [11, 18]: 70 | Plant response rating, Canarygrass [11, 19]: 75 | Plant response rating, Canarygrass [11, 20]: 15 | Russian Thistle plant response rating [12, 14]: 80 | Plant response rating, Russian Thistle [12, 15]: 85 | Plant response rating, Russian Thistle [12, 16]: 85 | Plant response rating (scale of 0 to 100), Russian Thistle ([12]; Preemergence, 31 g ai/ha): 0 | Plant response rating, Russian Thistle [12, 17]: 0 | Plant response rating, Russian Thistle [12, 18]: 25 | Plant response rating, Russian Thistle [12, 19]: 35 | Plant response rating, Russian Thistle [12, 20]: 80 | Wheat, Winter plant response rating [13, 14]: 0 | Plant response rating, Wheat, Winter [13, 15]: 0 | Plant response rating, Wheat, Winter [13, 16]: 0 | Plant response rating (scale of 0 to 100), Wheat, Winter ([13]; Preemergence, 31 g ai/ha): 0 | Plant response rating, Wheat, Winter [13, 17]: 0 | Plant response rating, Wheat, Winter [13, 18]: 20 | Plant response rating, Wheat, Winter [13, 19]: 15 | Plant response rating, Wheat, Winter [13, 20]: 0
